pKi: −log10 of the molar value.
Experiments:
Format in all cases: biochemical
human matrilysin (Matr) = biological target: T1, human matrilysin (Matr) (Homo sapiens, UniProt P09237); assay: Inhibition of matrilysin (Matr) - fluorogenic MCA peptide substrate hydrolysis; conditions: catalytic domain; Ki,app; MCA peptide substrate 10 μM, pH 7.5, 37° C., 2% DMSO
T1 construct: the catalytic domain was liberated by treatment with 2mM APMA; ubiquitin (fusion) (cleaved yes); made in house; host or cells: E. coli
T1 sequence (P09237 95-267): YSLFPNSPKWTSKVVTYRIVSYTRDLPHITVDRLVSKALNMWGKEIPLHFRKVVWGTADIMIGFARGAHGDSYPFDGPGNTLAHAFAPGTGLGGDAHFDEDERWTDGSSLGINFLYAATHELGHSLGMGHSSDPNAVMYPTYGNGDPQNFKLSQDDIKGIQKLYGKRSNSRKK
Protocol: Human matrilysin (Matr) was expressed in E. coli as a fusion protein with ubiquitin. After purification of the matrilysin/ubiquitin fusion from inclusion bodies, the catalytic domain was liberated by treatment with 2mM APMA at 37 ° C. for 2 hours. Final purification was complete using copper chelate chromatography.
(§1) Assays were performed in assay buffer (50 mM Tricine pH 7.5, 200 mM sodium chloride, 10 mM calcium chloride, 0.5 mM zinc acetate containing 2% dimethyl sulfoxide (DMSO)), once the substrate and inhibitor were diluted into it. Stock solutions of inhibitors were prepared in 100 % DMSO. Stock solutions of the substrate were prepared in 100 % DMSO at a concentration of 6 mM.
(§2) The assay method was based on the hydrolysis of MCA-Pro-Leu-Gly-Leu-DPA-Ala-Arg-NH2 (American Peptide Co.) at 37° C. (see Knight, C. G. et al., FEBS, 1992, 296, 263-266, which article is entirely incorporated herein by reference). The fluorescence changes were monitored with a Perkin-Elmer LS-50B fluorimeter using an excitation wavelength of 328 nm and an emission wavelength of 393 nm. The substrate concentration used in the assays was 10 μM. The inhibitor was diluted into the assays from a solution in 100 % DMSO, and controls substituted an equal volume of DMSO so that the final DMSO concentration from inhibitor and substrate dilution in all assays was 2%. […] Proper determination of steady-state rates of substrate cleavage required assay lengths of 60 minutes to allow for complete equilibration of the enzyme-inhibitor complex.
(§3) The Km for the MCA peptide substrate with the matrix metalloproteinases is quite high and exceeds its solubility under assay conditions. Consequently, the apparent Ki (Ki, app) was determined to describe the strength of inhibition. However, in this case, Ki,app would be essentially equal to Ki since [S]<<Km. For the determination of Ki,app, the concentration of the inhibitor was varied at a constant and low concentration of substrate, and the steady-state rates of fluorescence change were determined. In most cases, absorptive quench due to the presence of ligand was not observed. For slow-binding inhibitors, onset of inhibition curves were collected for at least 45 minutes so that equilibrium was established. Steady-state rates of fluorescence change were obtained by fitting a curve to an equation for a single exponential decay containing a linear phase. The fitted value of the linear phase was taken as the steady-state rate. The steady-state rates were fitted to the Michaelis equation describing competitive inhibition by non-linear methods. Data resulting from tight-binding inhibition was analyzed, and Ki,app determined by fitting the data to the tight-binding equation of Morrison (Biochem. Biophys. Acta, vol. 185, pp. 269-286 (1969), which article is entirely incorporated herein by reference) by non-linear methods.
(§4) All Ki values are in nM units.

[1] = biological target: T2, human collagenase-1 (HFC) (Homo sapiens, UniProt P03956); assay: Inhibition of collagenase-1 (HFC) - fluorogenic MCA peptide substrate hydrolysis; conditions: catalytic domain; Ki,app; MCA peptide substrate 10 μM, pH 7.5, 37° C., 2% DMSO
T2 construct: the fibroblast collagenase-1 catalytic domain (HFC) was released; ubiquitin (fusion) (cleaved yes); made in house; host or cells: E. coli
T2 sequence (P03956 100-269 limits assumed): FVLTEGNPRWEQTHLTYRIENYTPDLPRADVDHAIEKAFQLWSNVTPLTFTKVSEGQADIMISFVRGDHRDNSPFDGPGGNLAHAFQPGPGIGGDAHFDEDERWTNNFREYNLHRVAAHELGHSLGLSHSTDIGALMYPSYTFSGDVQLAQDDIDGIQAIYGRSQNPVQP
Source text: The catalytic domain of human collagenase-1 was expressed as a fusion protein with ubiquitin in E. coli (see Gehring, E. R., J. Biol. Chem., 1995, 270, 22507, which article is entirely incorporated herein by reference). After purification of the fusion protein, the fibroblast collagenase-1 catalytic domain (HFC) was released either by treatment with purified, active stromelysin-1 (1:50 w/w ratio), which generated nearly 100% N-terminal Phe1, or by autoprocessing the concentrated collagenase-1 fusion and then incubating at 37° C. for 1 hour. Final purification was completed using zinc chelate chromatography.
as §1, §2, §3, §4

[2] = biological target: T3, human stromelysin-1 (Strom) (Homo sapiens, UniProt P08254); assay: Inhibition of stromelysin (Strom) - fluorogenic MCA peptide substrate hydrolysis; conditions: catalytic domain; Ki,app; MCA peptide substrate 10 μM, pH 7.5, 37° C., 2% DMSO; enzyme 1.5 nM
T3 construct: The catalytic domain of human stromelysin (Sln) was obtained by expression and purification of a C-terminally truncated prostromelysin-1; made in house; host or cells: E. coli BL21
T3 sequence (P08254 100-272 limits assumed): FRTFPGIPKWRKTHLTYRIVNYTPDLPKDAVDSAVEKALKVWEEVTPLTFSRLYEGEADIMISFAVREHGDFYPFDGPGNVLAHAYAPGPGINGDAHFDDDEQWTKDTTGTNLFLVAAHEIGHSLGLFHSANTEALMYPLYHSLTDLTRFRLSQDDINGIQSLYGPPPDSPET
Protocol: The catalytic domain of human stromelysin (Sln) was obtained by expression and purification of a C-terminally truncated prostromelysin-1 from E. coli host BL21 (see Marcy et al. Biochem., 1991, 30, 6476, which article is entirely incorporated herein by reference). The subsequent activation of the mature form (Sln) was completed with 2mM APMA for 1 hour at 37° C., followed by separation using a sizing column.
as §1, §2, §3, §4

[3] = biological target: human collagenase-3 (Coll-3); assay: Inhibition of collagenase-3 (Coll-3) - fluorogenic MCA peptide substrate hydrolysis; conditions: catalytic domain; Ki,app; MCA peptide substrate 10 μM, pH 7.5, 37° C., 2% DMSO
Protocol: The propeptide and catalytic domain of human collagenase-3 (Coll3) was expressed in E. coli as an N-terminal fusion protein with ubiquitin. After purification of the fusion from inclusion bodies, the catalytic domain was liberated by treatment with 2mM APMA at room temperature overnight. Final purification was completed using copper chelate chromatography.
as §1, §2, §3, §4

[4] = biological target: human gelatinase A (Gel A); assay: Inhibition of gelatinase A (Gel A) - fluorogenic MCA peptide substrate hydrolysis; conditions: catalytic and fibronectin-like portion; Ki,app; MCA peptide substrate 10 μM, pH 7.5, 37° C., 2% DMSO; enzyme 60 pM
Protocol: The catalytic and fibronectin-like portion of human progelatinase A (GelA) was expressed as a fusion protein with ubiquitin in E. Coli. Assays were carried out on autocatalytically activated material.
as §1, §2, §3, §4

Row | Structure (SMILES) | pKi (human matrilysin (Matr)) | pKi [1] | pKi [2] | pKi [3] | pKi [4]
1 | O=C(NO)[C@H]1CCCCN1S(=O)(=O)c1ccc(Oc2ccccc2)cc1 [Example 7, 2(R)-1-(4-Phenoxy-benzenesulfonyl)-N-hydroxy-piperidine-2-carboxamide] | 7.26 | 8.18 | 10.15 | – | –
2 | O=C(O)[C@H]1CCCCN1S(=O)(=O)c1ccc(Oc2ccc(-c3ccccc3)cc2)cc1 [Example 6(a)] | 4.14 | 3.90 | 5.66 | 6.67 | 7.19
3 | CC(C)[C@H](C(=O)NO)N(Cc1cccnc1)S(=O)(=O)c1ccc(Oc2ccc(Br)cc2)cc1 [Example 3(a), 2(R)-2-[4-(4-Bromophenoxy)benzenesulfonyl][(pyridin-3-yl)methyl]amino-N-hydroxy-3-methylbutanamide] | – | 8.12 | 9.46 | 10.70 | –
4 | O=C(NO)[C@H]1CCCCN1S(=O)(=O)c1ccc(Oc2ccc(-c3ccccc3)cc2)cc1 [Example 6, 2(R)-1-[4-(Biphenyl-4-yl)oxybenzenesulfonyl]-N-hydroxy-piperidine-2-carboxamide] | 8.17 | 8.06 | 10.22 | – | 10.85
5 | CCOP(=O)(CN(CC(=O)NO)S(=O)(=O)c1ccc(Oc2ccccc2)cc1)OCC [Example 4, 2(R)-2-[(diethylphosphonomethyl)(4-phenoxybenzenesulfonyl)amino]-N-hydroxyacetamide] | – | 7.57 | 9.64 | 10.05 | –
6 | O=C(O)[C@H]1CCCCN1S(=O)(=O)c1ccc(Oc2ccc(Br)cc2)cc1 [Example 5(a)] | 3.27 | 3.32 | 4.80 | 6.35 | 6.72
7 | CCOP(=O)(CN(CC(=O)O)S(=O)(=O)c1ccc(Oc2ccccc2)cc1)OCC [Example 4(a), 2(R)-2-[(diethylphosphonomethyl)(4-phenoxybenzenesulfonyl)-amino]-acetic acid] | – | – | 4.57 | 6.13 | –
8 | CC(C)[C@H](C(=O)NO)N(Cc1cccnc1)S(=O)(=O)c1ccc(Oc2ccccc2)cc1 [Example 3(b), 2(R)-N-hydroxy-2-[(4-phenoxy)benzenesulfonyl][(pyridin-3-yl)methyl]amino-3-methylbutanamide] | – | 8.22 | 8.92 | 10.30 | –
9 | O=C(NO)[C@H]1CCCCN1S(=O)(=O)c1ccc(Oc2ccc(Br)cc2)cc1 [Example 5, 2(R)-1-[4-(4-Bromophenoxy)benzenesulfonyl]-N-hydroxypiperidine-2-carboxamide] | 7.36 | 7.82 | 10.40 | 10.85 | 10.74
